From patent publication USRE36784E, “Chemoprotective isothiocyanates” (The Johns Hopkins University, priority 1997, dated 2000)
Entries after “also recorded” stand apart in the source; their conditions may differ. Read-outs that look alike come from different tables or passages of the source.

Legend:
[1] = tested on: quinone reductase (QR) in Hepa 1c1c7 murine hepatoma cells; assay: Induction of QR (inducer potency, CD value) in Hepa 1c1c7 murine hepatoma cells; type: cell-based; conditions: for activity as inducers compared with sulforaphane and sulforaphene: in cell culture
Protocol: (§1) Assay of Inducer Potency. Inducer activity was measured in Hepa 1c1c7 murine hepatoma cells grown in 96-well microtiter plates (Prochaska and Santamaria, Anal. Biochem. 169:328-336 (1988); Prochaska et al., Proc. Natl. Acad. Sciences USA 89:2394-2398 (1992)). QR activity (based on the formation of the blue-brown reduced tetrazolium dye) was measured with an optical microtiter plate scanner in cell lysates prepared in one plate, and the cell density was determined in the second plate by staining with crystal violet. Quantitative information on specific activity of QR, the inducer potency, and the cytotoxicity of the extract or compound tested is obtained by computer analysis of the absorbances. One unit of inducer activity is defined as the amount that when added to a single microtiter well doubled the QR specific activity. The CD value is the concentration of a compound required to double the quinone reductase specific activity in Hepa 1c1c7 murine hepatoma cells.
Each of the analogs of sulforaphane was tested for the ability to induce QR in murine hepatoma cells by the assay described in Example 1.
Analogs were synthesized and tested in the hepatoma cell assay described in Example 1.

[2] = tested on: quinone reductase (QR) in Hepa 1c1c7 murine hepatoma cells; parameters: unit not given here; conditions: footnote 3, reported value; cited from earlier work
[3] = tested on: phase I and phase II enzymes in mutants of Hepa 1c1c7 cells; conditions: Prochaska et al. 1988; cited from earlier work
[4] = tested on: glutathione S-transferase (GST); assay: Induction of glutathione S-transferase (GST) in mouse tissues after gavage; type: in vivo, mouse (female CD-1)
Protocol: (§2) The compounds were administered to 6week-old female CD1 mice (4 or 5 mice
(§3) per group) by gavage in indicated single daily doses in 0.1 ml of Emulpho
(§4) EL 620P (GAF. Linden, NJ) for 5 days. Cytosols were prepared from the
(§5) tissues 24 hr after the last treatment and assayed for enzyme activities
(§6) (glutathione Stransferase was measured with 1chloro-2,4-dinitrobenzene).
(§7) The specific activities (nmol · min^-1 · mg^-1
(§8) ± SEM) of organs of vehicletreated #control mice were as follows.
(§9) 54 ± 5.8: GST. 439 ± 34. Data are presented as mean ± SEM.

[5] = tested on: QR in BP^r cl mutant (defective in transport of the liganded Ah receptor to the nucleus); conditions: data not shown
[6] = tested on: QR in cl mutant (which synthesizes inactive cytochrome P-450IA1); conditions: data not shown
[7] = tested on: phase I and phase II enzymes in mutants of Hepa 1c1c7 cells; conditions: phase II selective = monofunctional
QR (quinone reductase) = assay: Induction of QR in mouse tissues after gavage; type: in vivo, mouse (female CD-1)
Protocol: as §2, §3, §4, §5, §6, §7, §8, §9

[8] = tested on: Hepa 1c1c7 murine hepatoma cells; conditions: Hepa 1c1c7 cells
Protocol: as §1

[9] = Mus musculus, Hepa-1c1c7, read-out: CD, Table 3, QR induction, hepatoma cell assay of Example 1
[10] = Table 3, QR induction, hepatoma cell assay of Example 1, read-out: CD
[11] = Mus musculus, Hepa-1c1c7, read-out: CD value, Table 1, QR induction, Hepa 1c1c7 cells
[12] = 15 μmol per mouse per day, gavage, 5 days, glandular stomach
[13] = 15 μmol per mouse per day, gavage, 5 days, liver
[14] = 15 μmol per mouse per day, gavage, 5 days, lung
[15] = 15 μmol per mouse per day, gavage, 5 days, proximal small intestine
[16] = Mus musculus, Hepa-1c1c7, text, isolated (R)- and synthetic (R,S)-sulforaphane, read-out: CD values

Compound | EC (2-fold QR specific activity) [1, 9] | further results
CS(=O)(=O)[C@@H]1CCC[C@H](CN=C=S)C1 (relative stereo) [GHP 1080, cis- or trans-3-(methylsulfonyl)cyclohexylmethylisothiocyanate] | 0.41 µM | –
CCc1ccccc1CN=C=S [GHP 1053] | 12.5 µM | –
S=C=Nc1ccccc1Cl [GHP 1032] | 100 µM | –
CC(=O)C1CC2CC1CC2N=C=S (stereo not drawn) [GHP 1067, exo-2-acetyl-5-isothiocyanatonorbornane] | – | EC (2-fold QR specific activity) [1, 10]: 0.43 µM
S=C=NC1CCCCC1 [cyclohexylisothiocyanate] | – | CD value (reported) [2]: 14
COc1ccccc1N=C=S [GHP 1031] | 100 µM | –
CC(O)C1CC2CC1CC2N=C=S (stereo not drawn) [GHP 1075, exo-2-(1'-hydroxyethyl)-5-isothiocyanatonorbornane] | 0.45 µM | –
CS(=O)(=O)C1CC2CC1CC2N=C=S (stereo not shown) [GHP 1063] | 1.02 µM | –
OC1CC2CC1CC2N=C=S (stereo not shown) [GHP 1077] | 1.85 µM | –
C[S+]([O-])CCCN=C=S (stereo not shown) [Iberin] | – | EC (2-fold QR specific activity) [1, 11]: 2.4 µM; activity as inducers compared with sulforaphane and sulforaphene [1]: less active
CCOC(=O)CN=C=S [GHP 1061] | 8.2 µM | –
COc1ccc(CN=C=S)cc1 [GHP 1043] | 25 µM | –
CS(=O)(=O)[C@H]1CC[C@@H](N=C=S)CC1 [GHP 1073, cis-1-isothiocyanate-4-methylsulfonylcyclohexane] | 0.44 µM | –
C[S+]([O-])CCCN=C=S (stereo not shown) [GHP 1009] | 2.36 µM | –
COC(=O)C1CC2CC1CC2N=C=S (stereo not shown) [GHP 1069] | 0.68 µM | –
CSCCCN=C=S [GHP 1008] | 3.52 µM | –
CC(=O)CCCCN=C=S [GHP 1105, 6-isothiocyanato-2-hexanone] | 0.23 µM | –
S=C=NCc1ccccc1Cl [GHP 1048] | 14.1 µM | –
CSCc1ccccc1CN=C=S [GHP 1021] | 4.3 µM | –
O=C(O)CCCCN=C=S [GHP 1103] | 2.19 µM | –
S=C=NCc1ccccc1 [Benzylisothiocyanate] | – | inducer type [3]: monofunctional inducer

Compound | EC (2-fold QR specific activity) [1, 9] | further results
COc1cccc(CN=C=S)c1 [GHP 1042] | 8.65 µM | –
CC(=O)C1CC2CC1CC2N=C=S (stereo not shown) [GHP 1065] | 0.77 µM | –
CSc1ccccc1CN=C=S [GHP 1046] | 6.8 µM | –
CS(=O)(=O)[C@@H]1CCC[C@@H](CN=C=S)C1 (relative stereo) [GHP 1079, cis- or trans-3-(methylsulfonyl)cyclohexylmethylisothiocyanate] | 0.48 µM | –
CCOc1ccccc1CN=C=S [GHP 1051] | 2.5 µM | –
N#CCCCCN=C=S [GHP 1101] | 1.97 µM | –
CS(=O)(=O)CCCCN=C=S [GHP 1007] | 0.82 µM | –
Fc1ccccc1CN=C=S [GHP 1047] | 13.1 µM | –
C[S+]([O-])CCCCCN=C=S (stereo not shown) [Alyssin] | – | EC (2-fold QR specific activity) [1, 11]: 0.95 µM; activity as inducers compared with sulforaphane and sulforaphene [1]: less active
COc1cccc(OC)c1CN=C=S [GHP 1044] | 5.8 µM | –
C[S+]([O-])CCCCN=C=S (racemic) [Sulforaphane] | – | rise in glutathione transferase activity in lung ([4]; 15 μmol daily for 5 days, lung): to a lesser degree; Ratio of specific activities (treated/control), GST, Forestomach ([4]; 15 μmol per mouse per day, gavage, 5 days, forestomach): 1.98 ± 0.08; Ratio of specific activities (treated/control), GST, Glandular stomach [4, 12]: 2.97; Ratio of specific activities (treated/control), GST, Liver [4, 13]: 1.86 ± 0.08; Ratio of specific activities (treated/control), GST, Lung [4, 14]: 1.17; Ratio of specific activities (treated/control), GST, Proximal small intestine [4, 15]: 2.13; induction of QR in mutant cells [5]: normal; induction of QR in mutant cells [6]: normal; EC (2-fold QR specific activity) ([1]; Mus musculus, Hepa-1c1c7, Table 1, QR induction, Hepa 1c1c7 cells, read-out: CD value): 0.4 to 0.8 µM; relative potency as inducers of QR ([1]; comparison in words, Table 1): most potent monofunctional inducer that has been identified; also recorded: equipotent; inducer type [7]: monofunctional inducer; rise in QR activity in lung (QR (quinone reductase); 15 μmol daily for 5 days, lung): to a lesser degree; Ratio of specific activities (treated/control), QR, Forestomach (QR (quinone reductase); 15 μmol per mouse per day, gavage, 5 days, forestomach, *P < 0.05): 1.70 ± 0.18; Ratio of specific activities (treated/control), QR, Glandular stomach (QR (quinone reductase); [12]): 2.35 ± 0.06; Ratio of specific activities (treated/control), QR, Liver (QR (quinone reductase); [13]): 2.45 ± 0.07; Ratio of specific activities (treated/control), QR, Lung (QR (quinone reductase); [14]): 1.37 ± 0.14; Ratio of specific activities (treated/control), QR, Proximal small intestine (QR (quinone reductase); [15]): 2.34 ± 0.19
CS(=O)(=O)C1CC2CC(N=C=S)C1C2 (stereo not drawn) [GHP 1068, exo-2-isothiocyanato-6-methylsulfonylnorbornane] | 0.15 µM | –
S=C=NCc1ccccc1Br [GHP 1049] | 12.5 µM | –
CS(=O)(=O)c1ccc(CN=C=S)cc1 [GHP 1062] | 1.2 µM | –
C[S+]([O-])CCCCN=C=S (stereo not shown) [GHP 1005] | – | EC (2-fold QR specific activity) ([1]; Mus musculus, Hepa-1c1c7, Table 3, QR induction, hepatoma cell assay of Example 1, read-out: CD): 0.2 µM
CSCCCN=C=S [Iberverin] | – | EC (2-fold QR specific activity) [1, 11]: 3.5 µM; activity as inducers compared with sulforaphane and sulforaphene [1]: less active
C[S+]([O-])CCCCCN=C=S (stereo not shown) [GHP 1002] | 0.94 µM | –
CSCCCCCN=C=S [GHP 1001] | 1.71 µM | –
CN(C)c1ccccc1CN=C=S [GHP 1045] | 12.5 µM | –
CSCCc1ccccc1N=C=S [GHP 1023] | 100 µM | –
CCOC(=O)C(CCS(C)(=O)=O)N=C=S (stereo not shown) [GHP 1074] | 2.64 µM | –

Compound | EC (2-fold QR specific activity) [1, 9] | further results
N#CC1CC2CC1CC2N=C=S (stereo not shown) [GHP 1071] | 0.59 µM | –
CSCCCCCN=C=S [Berteroin] | – | EC (2-fold QR specific activity) [1, 11]: 1.7 µM; activity as inducers compared with sulforaphane and sulforaphene [1]: less active
O=[N+]([O-])C1CC2CC1CC2N=C=S (stereo not shown) [GHP 1072] | 1.05 µM | –
COc1ccccc1CN=C=S [GHP 1041] | 2.41 µM | –
CS(=O)(=O)CCCN=C=S [Cheirolin] | – | EC (2-fold QR specific activity) [1, 11]: 1.3 µM; activity as inducers compared with sulforaphane and sulforaphene [1]: less active
CS(=O)(=O)C1CC2CC1CC2N=C=S (stereo not shown) [GHP 1064] | – | EC (2-fold QR specific activity) [1, 10]: 0.66 µM
CS(=O)(=O)CCCCCN=C=S [GHP 1003, 1-isothiocyanato-5-methylsulfonylpentane] | 0.98 µM | EC (2-fold QR specific activity) [1, 11]: 0.98 µM
CCCCC(=O)CCCCN=C=S [GHP 1081] | 2 µM | –
COC(=O)C1CC2CC(N=C=S)C1C2 (stereo not shown) [GHP 1070] | 1.6 µM | –
NC(=O)c1ccc(N=C=S)cc1 [GHP 1033] | 100 µM | –
CC(O)CCCCN=C=S (stereo not shown) [GHP 1106, 6-isothiocyanato-2-hexanol] | 0.35 µM | –
CSc1ccccc1CCN=C=S [GHP 1022] | 7.4 µM | –
CS(=O)(=O)CCCN=C=S [GHP 1010] | 1.32 µM | –
C[S+]([O-])CCCCN=C=S (racemic) [(R,S)-sulforaphane] | – | cytotoxicity in words [8]: relatively noncytotoxic; EC (2-fold QR specific activity) [1, 16]: 0.2 to 0.4 µM
S=C=NCCCCCSSCCCCCN=C=S [GHP 1004] | 0.83 µM | –
COC(=O)CCCCN=C=S [GHP 1102] | 2.81 µM | –
CC(=O)C1CC2CC(N=C=S)C1C2 (stereo not drawn) [GHP 1066, exo-2-acetyl-6-isothiocyanatonorbornane] | 0.26 µM | –
Cc1ccccc1CN=C=S [GHP 1050] | 3.7 µM | –
CP(C)(=O)CCCCN=C=S [GHP 1078, 1-isothiocyanato-4-dimethylphosphonyl-butane] | 0.43 µM | –
C[S@@+]([O-])CCCCN=C=S [(R)-sulforaphane] | – | cytotoxicity in words [8]: relatively noncytotoxic; inducer activity ([1]; 8.9 mg isolated after HPLC/TLC/HPLC): 558,000 inducer units; EC (2-fold QR specific activity) [1, 16]: 0.2 to 0.4 µM
S=C=NC1CCc2ccccc21 (stereo not shown) [GHP 1052] | 38.9 µM | –
